{"source": "patent US20250230193A1", "about": "“CYCLIC COMPOUND HAVING SELECTIVE KRAS INHIBITORY EFFECT ON HRAS AND NRAS” (CHUGAI SEIYAKU KABUSHIKI KAISHA, priority 2022, published 2025)", "key": {"[1]": {"molecular_target": "GDP-bound HRAS wild-type protein (Homo sapiens, UniProt P01112)", "sequence (P01112 whole entry)": "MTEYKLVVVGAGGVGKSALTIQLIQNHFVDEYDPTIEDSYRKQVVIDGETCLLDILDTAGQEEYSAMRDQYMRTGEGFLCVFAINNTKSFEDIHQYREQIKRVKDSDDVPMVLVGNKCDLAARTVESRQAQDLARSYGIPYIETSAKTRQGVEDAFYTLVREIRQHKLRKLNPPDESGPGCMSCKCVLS", "test": "Binding to HRAS by surface plasmon resonance (SPR), Single Cycle Kinetics", "settings": "SPR; for HRAS/KRAS (ratio of KD value for HRAS to KD value for KRAS) / HRAS/KRAS (ratio of KD value with respect to HRAS to KD value with respect to KRAS): GDP-bound HRAS wild-type vs GDP-bound KRAS wild-type"}, "[2]": {"molecular_target": "GDP-bound NRAS wild-type protein (Homo sapiens, UniProt P01111)", "sequence (P01111 whole entry)": "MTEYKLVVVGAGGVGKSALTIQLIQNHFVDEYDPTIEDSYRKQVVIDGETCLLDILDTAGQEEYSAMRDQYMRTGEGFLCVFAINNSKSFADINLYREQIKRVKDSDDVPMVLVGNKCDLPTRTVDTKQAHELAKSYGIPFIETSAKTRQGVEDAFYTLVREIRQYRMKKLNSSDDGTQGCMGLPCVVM", "test": "Binding to NRAS by surface plasmon resonance (SPR), Single Cycle Kinetics", "settings": "SPR; for NRAS/KRAS (ratio of KD value for NRAS to KD value for KRAS) / NRAS/KRAS (ratio of KD value with respect to NRAS to KD value with respect to KRAS): GDP-bound NRAS wild-type vs GDP-bound KRAS wild-type"}}, "note": "*1 amine or outer side, *2 acyl side, *3 side chain or, on linkers, in order; H or OH if unused. Where a SMILES comes first, the peptide text is derived from it. Bridges are numbered along the chain shown (N, C = ends). [ ]: non-standard residue; d: D form. The star is where a group is joined. hPhe(3-Cl-4-CF3) = N[C@@H](CCc1ccc(C(F)(F)F)c(Cl)c1)C(=O)O; X17 = CCCCN([C@@H](Cc1ccc(C(F)(F)F)cc1)C(=O)[*:2])[*:1]; NPrPhe(4-CF3) = CCCN[C@@H](Cc1ccc(C(F)(F)F)cc1)C(=O)O; X39 = Cc1ccc(C[C@@H](C(=O)[*:2])N(CC(C)C)[*:1])cc1; NMeGly(cPent) = CN[C@H](C(=O)O)C1CCCC1; Ac4c(3,3-Me2) = CC1(C)CC(N)(C(=O)O)C1; NMeD = CN[C@@H](CC(=O)O)C(=O)O; NMeL = CN[C@@H](CC(C)C)C(=O)O; Morpholide = C1CN(*)CCO1; Ac5c = NC1(C(=O)O)CCCC1; Sar = CNCC(=O)O"}
{"compound": "CC[C@H](C)[C@@H]1NC(=O)[C@H](CC(C)C)N(C)C(=O)C[C@@H](C(=O)N2CCOCC2)N(C)C(=O)[C@H](C2CCCC2)N(C)C(=O)C2(CCCC2)NC(=O)[C@@H]2CCCN2C(=O)[C@H](CCc2ccc(C(F)(F)F)c(Cl)c2)NC(=O)CN(C)C(=O)[C@H](Cc2ccc(C)cc2)N(CC(C)C)C(=O)CN(C)C(=O)CN(C)C1=O", "note": "[PP0063] ([NMeL]I[Sar][Sar][X39][Sar][hPhe(3-Cl-4-CF3)]P[Ac5c][NMeGly(cPent)][NMeD]-Morpholide; lactam N-11)", "values": [{"measurement": "HRAS/KRAS (ratio of KD for GDP-bound HRAS wild-type to KD for KRAS)", "setting": "[1]", "result": "C (A compound having a KD ratio of 0.1 or more and less than 3 is denoted as C)"}, {"measurement": "NRAS/KRAS (ratio of KD for GDP-bound NRAS wild-type to KD for KRAS)", "setting": "[2]", "result": "C (A compound having a KD ratio of 0.1 or more and less than 3 is denoted as C)"}]}
{"compound": "CCCN1C(=O)CN(C)C(=O)CN(C)C(=O)[C@H]([C@@H](C)OCC)NC(=O)[C@H](CC(C)C)N(C)C(=O)C[C@@H](C(=O)N2CCOCC2)N(C)C(=O)[C@H](C2CCCC2)N(C)C(=O)C2(CC(C)(C)C2)NC(=O)[C@@H]2CCCN2C(=O)[C@H](CCc2ccc(C(F)(F)F)c(Cl)c2)NC(=O)CN(C)C(=O)[C@@H]1Cc1ccc(C(F)(F)F)cc1", "note": "[PP1964] ([NMeL]T(Et)[Sar][Sar][NPrPhe(4-CF3)][Sar][hPhe(3-Cl-4-CF3)]P[Ac4c(3,3-Me2)][NMeGly(cPent)][NMeD]-Morpholide; lactam N-11)", "values": [{"measurement": "HRAS/KRAS (ratio of KD value for HRAS to KD value for KRAS)", "setting": "[1]; KD ratio", "result": "B (a compound having 3 or more and less than 10 is denoted as B)"}, {"measurement": "NRAS/KRAS (ratio of KD value for NRAS to KD value for KRAS)", "setting": "[2]; KD ratio", "result": "B (a compound having 3 or more and less than 10 is denoted as B)"}]}
{"compound": "CCCC[C@H]1C(=O)NC2(CCC2)C(=O)N(C)[C@@H](C2CCCC2)C(=O)N(C)[C@H](C(=O)N(C)C)CC(=O)N(C)[C@@H](CC)C(=O)N[C@@H]([C@@H](C)CC)C(=O)N(C)CC(=O)N(C)[C@H]2C/C=C\\CCN(C2=O)[C@@H](Cc2ccc(C(F)(F)F)cc2)C(=O)N(C)CC(=O)N[C@@H](CCc2cc(F)c(C(F)(F)F)c(F)c2)C(=O)N1C", "note": "[PP1150]", "values": [{"measurement": "HRAS/KRAS (ratio of KD value with respect to HRAS to KD value with respect to KRAS)", "setting": "[1]; KD ratio", "result": "A (a compound having 10 or more and less than 20 is denoted as A)"}, {"measurement": "NRAS/KRAS (ratio of KD value with respect to NRAS to KD value with respect to KRAS)", "setting": "[2]; KD ratio", "result": "AA (a compound having 20 or more is denoted as AA)"}]}
{"compound": "CCCOC[C@H]1C(=O)N[C@@H]([C@@H](C)CC)C(=O)N2CCC[C@H]2C(=O)N(C)[C@H]2C/C=C\\CCN(C2=O)[C@@H](Cc2ccc(C(F)(F)F)cc2)C(=O)N(C)CC(=O)N[C@@H](CCc2ccc(C(F)(F)F)c(OC)c2)C(=O)N2C[C@H](OCC)C[C@H]2C(=O)N(C)C2(CCC2)C(=O)N(C)[C@@H](C2CCCC2)C(=O)N(C)[C@H](C(=O)N(C)C)CC(=O)N1C", "note": "[PP2322]", "values": [{"measurement": "HRAS/KRAS (ratio of KD value with respect to HRAS to KD value with respect to KRAS)", "setting": "[1]", "result": "B (a compound having 3 or more and less than 10 is denoted as B)"}, {"measurement": "NRAS/KRAS (ratio of KD value with respect to NRAS to KD value with respect to KRAS)", "setting": "[2]", "result": "A (a compound having 10 or more and less than 20 is denoted as A)"}]}
{"compound": "CCC[C@H]1C(=O)N[C@@H](CC(C)C)C(=O)N(CC)CC(=O)N(C)[C@H]2C/C=C\\CCN(C2=O)[C@@H](Cc2ccc(C)cc2)C(=O)N(C)CC(=O)N[C@@H](CCc2ccc(C(F)(F)F)c(OC)c2)C(=O)N2C[C@H](OCC)C[C@H]2C(=O)NC2(CC(C)(C)C2)C(=O)N(C)[C@@H](C2CCCC2)C(=O)N(C)[C@H](C(=O)N(C)C)CC(=O)N1C", "note": "[PP2518]", "values": [{"measurement": "HRAS/KRAS (ratio of KD value with respect to HRAS to KD value with respect to KRAS)", "setting": "[1]", "result": "A (a compound having 10 or more and less than 20 is denoted as A)"}, {"measurement": "NRAS/KRAS (ratio of KD value with respect to NRAS to KD value with respect to KRAS)", "setting": "[2]", "result": "A (a compound having 10 or more and less than 20 is denoted as A)"}]}
{"compound": "CCO[C@@H]1C[C@H]2C(=O)NC3(CC(C)(C)C3)C(=O)N(C)[C@@H](C3CCCC3)C(=O)N(C)[C@H](CC)CC(=O)N(C)[C@@H](CC)C(=O)N[C@@H]([C@@H](C)CC)C(=O)N(C)CC(=O)N(C)[C@H]3C/C=C\\CCN(C3=O)[C@@H](Cc3ccc(C(F)(F)F)cc3)C(=O)N(C)CC(=O)N[C@@H](CCc3cc(F)c(C(F)(F)F)c(F)c3)C(=O)N2C1", "note": "[PP1623]", "values": [{"measurement": "HRAS/KRAS (ratio of KD value for HRAS to KD value for KRAS)", "setting": "[1]; KD ratio", "result": "A (a compound having 10 or more and less than 20 is denoted as A)"}, {"measurement": "NRAS/KRAS (ratio of KD value for NRAS to KD value for KRAS)", "setting": "[2]; KD ratio", "result": "A (a compound having 10 or more and less than 20 is denoted as A)"}]}
{"compound": "CC[C@@H]1C[C@H]2C(=O)NC3(CCC3)C(=O)N(C)[C@@H](C3CCCC3)C(=O)N(C)[C@H](C(=O)N(C)C)CC(=O)N(C)[C@@H](CC(C)C)C(=O)N[C@@H]([C@@H](C)CC)C(=O)N(C)CC(=O)N(C)[C@H]3C/C=C\\CCN(C3=O)[C@@H](Cc3ccc(C)cc3)C(=O)N(C)CC(=O)N[C@@H](CCc3cc(F)c(C(F)(F)F)c(F)c3)C(=O)N2C1", "note": "[PP2220]", "values": [{"measurement": "HRAS/KRAS (ratio of KD value with respect to HRAS to KD value with respect to KRAS)", "setting": "[1]", "result": "A (a compound having 10 or more and less than 20 is denoted as A)"}, {"measurement": "NRAS/KRAS (ratio of KD value with respect to NRAS to KD value with respect to KRAS)", "setting": "[2]", "result": "A (a compound having 10 or more and less than 20 is denoted as A)"}]}
{"compound": "CCCCN1C(=O)CN(C)C(=O)CN(C)C(=O)[C@H]([C@@H](C)CC)NC(=O)[C@H](CC(C)C)N(C)C(=O)C[C@@H](C(=O)N2CCOCC2)N(C)C(=O)[C@H](C2CCCC2)N(C)C(=O)C2(CCCC2)NC(=O)[C@@H]2CCCN2C(=O)[C@H](CCc2ccc(C(F)(F)F)c(Cl)c2)NC(=O)CN(C)C(=O)[C@@H]1Cc1ccc(C(F)(F)F)cc1", "note": "[PP0120] ([NMeL]I[Sar][Sar][X17][Sar][hPhe(3-Cl-4-CF3)]P[Ac5c][NMeGly(cPent)][NMeD]-Morpholide; lactam N-11)", "values": [{"measurement": "HRAS/KRAS (ratio of KD for GDP-bound HRAS wild-type to KD for KRAS)", "setting": "[1]", "result": "C (A compound having a KD ratio of 0.1 or more and less than 3 is denoted as C)"}, {"measurement": "NRAS/KRAS (ratio of KD for GDP-bound NRAS wild-type to KD for KRAS)", "setting": "[2]", "result": "B (a compound having 3 or more and less than 10 is denoted as B)"}]}
